We go through 13 compounds from publication PMC9516332 (Frontiers in Oncology, 2022).

SMILES strings stand for the structures. Read-outs that look alike come from different tables or passages of the source.

What all share (assay): Kinase panel profiling at 1 µmol/L (MSA or IMAP), percentage inhibition
Format in all cases: biochemical

Experiment [1] has as its target T1, panel of 255 wild-type kinases (Homo sapiens, UniProt P29323).
T1 sequence (P29323 19-1055): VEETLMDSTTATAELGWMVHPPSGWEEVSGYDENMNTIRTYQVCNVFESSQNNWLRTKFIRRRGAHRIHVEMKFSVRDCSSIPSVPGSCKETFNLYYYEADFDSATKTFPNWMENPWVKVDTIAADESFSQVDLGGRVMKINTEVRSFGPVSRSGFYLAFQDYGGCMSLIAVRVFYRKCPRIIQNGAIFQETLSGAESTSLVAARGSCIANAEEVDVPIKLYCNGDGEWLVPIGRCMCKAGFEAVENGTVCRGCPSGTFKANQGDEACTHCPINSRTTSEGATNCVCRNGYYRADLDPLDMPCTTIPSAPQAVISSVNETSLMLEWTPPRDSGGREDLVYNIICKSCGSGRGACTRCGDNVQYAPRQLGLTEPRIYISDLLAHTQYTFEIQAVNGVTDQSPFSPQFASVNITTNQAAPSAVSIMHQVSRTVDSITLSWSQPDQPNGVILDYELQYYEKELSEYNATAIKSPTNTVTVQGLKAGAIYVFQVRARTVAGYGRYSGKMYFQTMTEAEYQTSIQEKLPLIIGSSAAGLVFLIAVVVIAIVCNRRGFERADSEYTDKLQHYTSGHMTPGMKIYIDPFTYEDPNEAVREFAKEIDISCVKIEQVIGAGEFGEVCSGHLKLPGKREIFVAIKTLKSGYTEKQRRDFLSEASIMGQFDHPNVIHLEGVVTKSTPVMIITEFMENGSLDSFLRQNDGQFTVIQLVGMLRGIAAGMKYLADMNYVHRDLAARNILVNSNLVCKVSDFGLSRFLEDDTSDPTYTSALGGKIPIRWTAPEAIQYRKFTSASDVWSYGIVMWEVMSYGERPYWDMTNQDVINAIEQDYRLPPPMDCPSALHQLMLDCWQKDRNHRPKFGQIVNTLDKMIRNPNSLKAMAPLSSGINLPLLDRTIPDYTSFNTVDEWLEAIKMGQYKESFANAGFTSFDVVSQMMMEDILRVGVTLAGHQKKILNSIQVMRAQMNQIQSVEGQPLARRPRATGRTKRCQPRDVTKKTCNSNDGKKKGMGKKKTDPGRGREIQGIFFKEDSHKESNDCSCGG
As to conditions: read-out: %-inhibition at 1 µmol/L, EPHB2.

Experiment [2] addresses panel of 255 wild-type kinases (Homo sapiens, UniProt P42684). As to conditions: read-out: %-inhibition ARG.
In experiment [3] the target is T2, panel of 255 wild-type kinases (Homo sapiens, UniProt P43403).
T2 sequence (P43403 1-619): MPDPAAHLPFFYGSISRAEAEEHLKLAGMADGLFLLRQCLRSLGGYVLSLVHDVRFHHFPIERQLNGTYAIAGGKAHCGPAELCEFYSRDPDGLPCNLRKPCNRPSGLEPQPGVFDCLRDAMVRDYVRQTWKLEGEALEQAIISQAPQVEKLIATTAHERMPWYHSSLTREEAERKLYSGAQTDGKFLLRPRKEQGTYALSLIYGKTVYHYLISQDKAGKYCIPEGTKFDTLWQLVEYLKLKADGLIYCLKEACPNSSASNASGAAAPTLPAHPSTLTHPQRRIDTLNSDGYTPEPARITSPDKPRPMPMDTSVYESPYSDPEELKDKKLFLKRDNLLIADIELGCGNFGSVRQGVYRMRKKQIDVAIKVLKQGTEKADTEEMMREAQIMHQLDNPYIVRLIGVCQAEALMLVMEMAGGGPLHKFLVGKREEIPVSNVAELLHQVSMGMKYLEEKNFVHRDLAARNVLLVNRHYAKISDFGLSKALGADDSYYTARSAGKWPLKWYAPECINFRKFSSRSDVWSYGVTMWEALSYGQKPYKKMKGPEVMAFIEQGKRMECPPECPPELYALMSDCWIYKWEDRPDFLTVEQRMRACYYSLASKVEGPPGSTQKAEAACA
As to conditions: read-out: %-inhibition at 1 µmol/L, ZAP70.

Experiment [4] deals with panel of 255 wild-type kinases (Homo sapiens, UniProt P51451). Conditions: read-out: %-inhibition BLK.
The target in experiment [5] is panel of 255 wild-type kinases (Homo sapiens, UniProt P54764). As to conditions: read-out: %-inhibition at 1 µmol/L, EPHA4.
Experiment [6] deals with T3, panel of 255 wild-type kinases (Homo sapiens, UniProt Q13976).
T3 sequence (Q13976 1-671): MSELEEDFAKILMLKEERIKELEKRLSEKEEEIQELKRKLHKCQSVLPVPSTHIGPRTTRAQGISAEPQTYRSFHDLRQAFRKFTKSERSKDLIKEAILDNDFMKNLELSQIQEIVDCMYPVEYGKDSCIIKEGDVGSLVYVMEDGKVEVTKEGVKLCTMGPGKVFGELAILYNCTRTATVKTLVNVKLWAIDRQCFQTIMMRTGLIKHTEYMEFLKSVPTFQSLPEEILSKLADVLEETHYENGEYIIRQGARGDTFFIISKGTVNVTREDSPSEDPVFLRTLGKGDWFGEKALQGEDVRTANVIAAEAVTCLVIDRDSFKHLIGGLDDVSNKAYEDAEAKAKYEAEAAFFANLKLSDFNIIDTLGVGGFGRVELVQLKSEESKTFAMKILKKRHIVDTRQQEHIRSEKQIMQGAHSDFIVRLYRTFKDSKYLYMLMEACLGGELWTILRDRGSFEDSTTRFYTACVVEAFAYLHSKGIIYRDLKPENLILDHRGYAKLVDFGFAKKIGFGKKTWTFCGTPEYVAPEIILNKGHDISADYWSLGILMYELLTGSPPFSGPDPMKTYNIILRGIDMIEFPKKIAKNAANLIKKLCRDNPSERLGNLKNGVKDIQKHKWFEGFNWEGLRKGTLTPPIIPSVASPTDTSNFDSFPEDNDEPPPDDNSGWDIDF
Conditions: read-out: %-inhibition at 1 µmol/L, PGK.

For experiment [7], the target named is panel of 255 wild-type kinases (Homo sapiens, UniProt Q9HCP0). Conditions: read-out: %-inhibition at 1 µmol/L, CK1γ1.
The mark [8] stands for this setting: kinase EPHB2, 1 µmol/L single concentration.
Where [9] appears, read: ARG kinase assay, 1 µmol/L single concentration.
[10] abbreviates: kinase ZAP70, 1 µmol/L single concentration.
Where [11] appears, read: BLK kinase assay, 1 µmol/L single concentration.
Setting [12] is: kinase EPHA4, 1 µmol/L single concentration.
Setting [13] is: kinase PGK, 1 µmol/L single concentration.
Setting [14] is: kinase CK1γ1, 1 µmol/L single concentration.

Regarding `Cc1nc(NC(=O)N2CCC[C@H]2C(N)=O)sc1-c1ccnc(C(C)(C)C(F)(F)F)c1` [alpelisib], the inhibition at 1 µM in experiment [1] (setting [8]) was 1.07%; in experiment [2] (setting [9]) it was 3.28%; in experiment [3] (setting [10]), 1.11%; in experiment [4] (setting [11]), -13%; in experiment [5] (setting [12]), -5%; in experiment [6] (setting [13]) it was -3%. Besides, in experiment [7] (setting [14]), the inhibition at 1 µM is -1.77%.

`Cn1cc(-c2cc3c(N4CCN(c5ncc([C@@](C)(N)c6ccc(F)cc6)cn5)CC4)ncnn3c2)cn1` [avapritinib]: the inhibition at 1 µM in experiment [1] (setting [8]) was 31%; in experiment [2] (setting [9]), 47%; in experiment [3] (setting [10]), 13%; in experiment [4] (setting [11]), 50%; in experiment [5] (setting [12]), 35%; in experiment [6] (setting [13]) it was -2.58%. For the same compound, the inhibition at 1 µM in experiment [7] (setting [14]) was 28%.

Turning to `Cn1cnc2c(F)c(Nc3ccc(Br)cc3F)c(C(=O)NOCCO)cc21` [binimetinib], the inhibition at 1 µM was 3.33% in experiment [1] (setting [8]); 1.39% in experiment [2] (setting [9]); -1.09% in experiment [3] (setting [10]); 10% in experiment [4] (setting [11]); 7.56% in experiment [5] (setting [12]); -3% in experiment [6] (setting [13]). Further, the inhibition at 1 µM in experiment [7] (setting [14]) turned out to be 1.68%.

Regarding `CNC(=O)c1ccc(-c2cnc3ncc(Cc4ccc5ncccc5c4)n3n2)cc1F` [capmatinib], the inhibition at 1 µM in experiment [1] was -5%; in experiment [2], 3.29%; in experiment [3] it was 4%; in experiment [4] it was -4%; in experiment [5] it was -2.77%; in experiment [6] it was -4.5%. In experiment [7], the inhibition at 1 µM was -1.88%.

As for `COc1cc2ncnc(Nc3ccc(F)c(Cl)c3)c2cc1NC(=O)/C=C/CN1CCCCC1` [dacomitinib], the inhibition at 1 µM was 51% in experiment [1] (setting [8]); 40% in experiment [2] (setting [9]); -4% in experiment [3] (setting [10]); 77% in experiment [4] (setting [11]); 38% in experiment [5] (setting [12]); 4% in experiment [6] (setting [13]). Moreover, in experiment [7] (setting [14]), the inhibition at 1 µM is 1.84%.

For the compound `C[C@H](Nc1ncnc2nc[nH]c12)c1cc2cccc(Cl)c2c(=O)n1-c1ccccc1` [duvelisib], the inhibition at 1 µM was 2% in experiment [1] (setting [8]); 0.877% in experiment [2] (setting [9]); 2% in experiment [3] (setting [10]); -12% in experiment [4] (setting [11]); -0.265% in experiment [5] (setting [12]); 1.63% in experiment [6] (setting [13]). The inhibition at 1 µM in experiment [7] (setting [14]) is -1.46%.

In the case of `COC(=O)N[C@@H](C)CNc1nccc(-c2cn(C(C)C)nc2-c2cc(Cl)cc(NS(C)(=O)=O)c2F)n1` [encorafenib], the inhibition at 1 µM in experiment [1] (setting [8]) is 5.43%; in experiment [2] (setting [9]), 1.69%; in experiment [3] (setting [10]) it was 0.195%; in experiment [4] (setting [11]), 10%; in experiment [5] (setting [12]), 10%; in experiment [6] (setting [13]), -1.28%. The inhibition at 1 µM in experiment [7] (setting [14]) was 26%.

Turning to `CN1CCN(c2ccc(C(=O)Nc3n[nH]c4ccc(Cc5cc(F)cc(F)c5)cc34)c(NC3CCOCC3)c2)CC1` [entrectinib], the inhibition at 1 µM in experiment [1] (setting [8]) is 64%; in experiment [2] (setting [9]) it was 83%; in experiment [3] (setting [10]), 2.19%; in experiment [4] (setting [11]), 86%; in experiment [5] (setting [12]), 28%; in experiment [7] (setting [14]), -1.18%.

Consider `CCc1nc(C(N)=O)c(Nc2ccc(N3CCC(N4CCN(C)CC4)CC3)c(OC)c2)nc1NC1CCOCC1` [gilteritinib], for which the inhibition at 1 µM came out at 75% in experiment [1] (setting [8]); 61% in experiment [2] (setting [9]); 46% in experiment [3] (setting [10]); 94% in experiment [4] (setting [11]); 36% in experiment [5] (setting [12]); 41% in experiment [6] (setting [13]). The inhibition at 1 µM in experiment [7] (setting [14]) was 11%.

As to `CCN1CCN(c2ccc(Nc3cc(N(C)C(=O)Nc4c(Cl)c(OC)cc(OC)c4Cl)ncn3)cc2)CC1` [infigratinib], the inhibition at 1 µM in experiment [1] (setting [8]) is -0.114%; in experiment [2] (setting [9]), 24%; in experiment [3] (setting [10]), -2.77%; in experiment [4] (setting [11]), 21%; in experiment [5] (setting [12]), 0.256%; in experiment [6] (setting [13]) it was -2%. Moreover, the inhibition at 1 µM in experiment [7] (setting [14]) was -0.947%.

On to `O=C(Nc1cnn2ccc(N3CCC[C@@H]3c3cc(F)ccc3F)nc12)N1CC[C@H](O)C1` [larotrectinib], for which the inhibition at 1 µM in experiment [1] (setting [8]) was -0.574%; in experiment [2] (setting [9]), -0.835%; in experiment [3] (setting [10]), 4.69%; in experiment [4] (setting [11]), -4%; in experiment [5] (setting [12]) it was -0.0271%; in experiment [6] (setting [13]), -2.33%. Also, the inhibition at 1 µM in experiment [7] (setting [14]) was -4.74%.

With `C[C@H]1Oc2cc(cnc2N)-c2c(nn(C)c2C#N)CN(C)C(=O)c2ccc(F)cc21` [lorlatinib], the inhibition at 1 µM in experiment [1] (setting [8]) was 14%; in experiment [2] (setting [9]), 1.49%; in experiment [3] (setting [10]), 6%; in experiment [4] (setting [11]), -6%; in experiment [5] (setting [12]), 25%; in experiment [6] (setting [13]) it was 0.684%. Also, in experiment [7] (setting [14]), the inhibition at 1 µM was -2.3%.

Take `CCN1C(=O)N(c2c(F)c(OC)cc(OC)c2F)Cc2cnc3[nH]c(CN4CCOCC4)cc3c21` [pemigatinib]: the inhibition at 1 µM was -0.799% in experiment [1] (setting [8]); 7% in experiment [2] (setting [9]); 2% in experiment [3] (setting [10]); 27% in experiment [4] (setting [11]); -1.83% in experiment [5] (setting [12]); -1.82% in experiment [6] (setting [13]). The inhibition at 1 µM in experiment [7] (setting [14]) is -5.5%.
